ChEMBL document CHEMBL1135668, “Design, synthesis, structure-activity relationships, and molecular modeling studies of 2,3-diaryl-1,3-thiazolidin-4-ones as potent anti-HIV agents” (J Med Chem, 2002)
Activity calls are given as the source filed them. The calls are words filed in the database; no cut-off is given here.

What was measured:
[1] = tested on: Human immunodeficiency virus 1; test: Cytotoxic concentration (anti-HIV activity) required to reduce […] by 50% in MT-4 cells; type: functional; details: Human immunodeficiency virus 1, MT4
[2] = tested on: Human immunodeficiency virus 1; test: Effective concentration (anti-HIV activity) required to reduce HIV-1 induced cytopathic effect by 50% in MT-4 cells; type: functional, organism-based; details: Human immunodeficiency virus 1, MT4
[3] = Selectivity index as the ratio of CC50 to that of EC50 value.; type: functional
[4] = tested on: Human immunodeficiency virus 1; test: Selectivity index as the ratio of CC50 to that of EC50 value in MT cells; type: functional
[5] = tested on: Human immunodeficiency virus 1; test: Effective concentration (anti-HIV activity) required to reduce HIV-1 induced cytopathic effect by 50% in MT-4 cells; NA is Not Active; type: functional, organism-based; details: mt4
[6] = tested on: Human immunodeficiency virus 1; test: (§1) Concentration required to reduced HIV-1-induced cytopathic effect by 50% in CEM cells; type: functional, organism-based; details: Human immunodeficiency virus 1, CCRF-CEM
[7] = tested on: Human immunodeficiency virus 1; test: Effective concentration (anti-HIV activity) required to reduce HIV-1 induced cytopathic effect by 50%in CEM cells; type: functional, organism-based; details: Human immunodeficiency virus 1, CCRF-CEM
[8] = biological target: Human immunodeficiency virus type 1 reverse transcriptase (Human immunodeficiency virus 1, UniProt Q72547); test: HIV-1 reverse transcriptase (RT) activity using Poly (rC)/oligo (dG) as template/primer and [3H]dGTP
[9] = Selectivity index as the ratio of CC50 to that of EC50 value in CEM cells; type: functional, CCRF-CEM
[10] = tested on: Human immunodeficiency virus 1; test: as §1; type: functional; details: Human immunodeficiency virus 1, CCRF-CEM
[11] = tested on: Human immunodeficiency virus 1; test: Concentration required to reduce CEM cell viability by 50%; details: Human immunodeficiency virus 1, CCRF-CEM
[12] = tested on: Human immunodeficiency virus 1; test: Anti-HIV-1 activity against mutant HIV-1 strain (100Leu-Ile) in CEM cells; type: functional, organism-based; details: Human immunodeficiency virus 1, CCRF-CEM
[13] = tested on: Human immunodeficiency virus 1; test: Anti-HIV-1 activity against mutant HIV-1 strain (103Lys-Asn) in CEM cells; type: functional, organism-based; details: Human immunodeficiency virus 1, CCRF-CEM
[14] = tested on: Human immunodeficiency virus 1; test: Anti-HIV-1 activity against mutant HIV-1 strain (138Glu-Lys) in CEM cells; type: functional, organism-based; details: Human immunodeficiency virus 1, CCRF-CEM
[15] = tested on: Human immunodeficiency virus 1; test: Anti-HIV-1 activity against mutant HIV-1 strain(188 Tyr-His) in CEM cells; type: functional, organism-based; details: Human immunodeficiency virus 1, CCRF-CEM
[16] = tested on: Human immunodeficiency virus 1; test: Anti-HIV-1 activity against mutant HIV-1 strain (HIV-1IIIB) in CEM cells; type: functional, organism-based; details: Human immunodeficiency virus 1, CCRF-CEM
[17] = tested on: Human immunodeficiency virus 1; test: Anti-HIV-1 activity against mutant HIV-1 strain(181 Tyr-Cys) in CEM cells; type: functional, organism-based; details: Human immunodeficiency virus 1, CCRF-CEM
[18] = tested on: Human immunodeficiency virus 1; test: Concentration required to reduced HIV-1-induced cytopathic effect by 50%in CEM cells; type: functional; details: Human immunodeficiency virus 1, CCRF-CEM
[19] = biological target: Human immunodeficiency virus type 1 reverse transcriptase (Human immunodeficiency virus 1) (UniProt Q72547); test: HIV-1 reverse transcriptase (RT) enzymatic activity was evaluated using Poly (rC)/oligo (dG) as template/primer and [3H]dGTP as radio labelled substrate
[20] = tested on: Human immunodeficiency virus 1; test: Concentration required to reduce CEM cell viability by 50%; details: Human immunodeficiency virus 1, CCRF-CEM; remark: listed apart in the source
[21] = tested on: Human immunodeficiency virus 1; test: Effective concentration (anti-HIV activity) required to reduce HIV-1 induced cytopathic effect by 50% in MT-4 cells; NA is Not Active.; type: functional, organism-based; details: mt4
[22] = tested on: Human immunodeficiency virus 1; test: Effective concentration (anti-HIV activity) required to reduce HIV-1 induced cytopathic effect by 50%in CEM cells; NA is Not Active.; type: functional, organism-based; details: ccrf-cem
[23] = biological target: Human immunodeficiency virus type 1 reverse transcriptase (Human immunodeficiency virus 1) (UniProt Q72547); test: HIV-1 reverse transcriptase (RT) enzymatic activity was evaluated using Poly (rC)/oligo (dG) as template/primer and [3H]dGTP as radio labeled substrate;NA is not active.

EC50 [2]	EC50 [7]	IC50 [8]	Compound	CC50 [1]	Selectivity index [4]	Selectivity index [9]	further results
5.13 µM			Cc1ccc(N2C(=O)CSC2c2c(F)cccc2F)nc1 (stereo unspecified)	202 µM	39.3		
1.41 µM	1.32 µM	42.4 µM	Cc1ccc(N2C(=O)CSC2c2c(Cl)cccc2Cl)nc1 (stereo unspecified)	24.9 µM	17.7	24	EC50 [6]: 31.2 µM
0.059 µM	0.078 µM	4.12 µM	Cc1cc(C)nc(N2C(=O)CSC2c2c(F)cccc2F)c1 (stereo unspecified)	43.4 µM	735	>=800	CC50 [10]: ≥ 62.4 µM
7.19 µM	4.13 µM	67 µM	O=C1CSC(c2c(F)cccc2F)N1c1ccc(Cl)cn1 (stereo unspecified)	29.8 µM	4.2	11	CC50 [11]: 47.1 µM
0.248 µM		2.84 µM	Cc1ccnc(N2C(=O)CSC2c2c(F)cccc2F)c1 (stereo unspecified)	242 µM	976		
0.178 µM			O=C1CSC(c2c(Cl)cccc2Cl)N1c1ccccn1 (stereo unspecified)	38.5 µM	216.3		
0.09 µM	0.13 µM		Cc1cc(C)nc(N2C(=O)CSC2c2c(Cl)cccc2Cl)c1 (stereo unspecified)	64.1 µM	712	>=2178	CC50 [11]: ≥ 283 µM
0.278 µM	0.242 µM		O=C1CSC(c2c(F)cccc2Cl)N1c1ccccn1 (stereo unspecified)	41.7 µM	150	791	CC50 [18]: 191 µM
1.24 µM			O=C1CSC(c2c(F)cccc2Cl)N1c1ccc(Br)cn1 (stereo unspecified)	30.7 µM	25		
0.042 µM			Cc1cc(C)nc(N2C(=O)CSC2c2c(F)cccc2Cl)c1 (stereo unspecified)	41.6 µM	986		
1.78 µM	1.86 µM		O=C1CSC(c2c(Cl)cccc2Cl)N1c1ccc(Cl)cn1 (stereo unspecified)	19.2 µM	11	17	CC50 [10]: 31.1 µM
0.064 µM			O=C1CSC(c2c(F)cccc2Cl)N1c1cccc(Br)n1 (stereo unspecified)	30.7 µM	484		
1.51 µM	1.31 µM	56.6 µM	O=C1CSC(c2c(Cl)cccc2Cl)N1c1ccc(Br)cn1 (stereo unspecified)	28.2 µM	18.6	20	CC50 [10]: 26 µM
0.147 µM			Cc1ccnc(N2C(=O)CSC2c2c(Cl)cccc2Cl)c1 (stereo unspecified)	> 368 µM	>2500		

More lines, now with the values behind:

Compound	EC50 [2]	EC50 [7]	IC50 [8]	CC50 [1]	Selectivity index [4]	Selectivity index [9]	further results
O=C1CSC(c2c(F)cccc2F)N1c1cccnc1 (stereo unspecified)	95.1 µM			> 427 µM			Selectivity index [3]: > 4.5
O=C1CSC(c2c(Cl)cccc2Cl)N1c1cccnc1 (stereo unspecified)				23.4 µM			EC50 [5]: Not Active
O=C1CSC(c2c(F)cccc2Cl)N1c1ccc(Cl)cn1 (stereo unspecified)	2.13 µM			29.4 µM			Selectivity index [3]: 14
c1ccc2[nH]c(-c3cscn3)nc2c1 [THIABENDAZOLE]	0.352 µM	1.1 µM	14.6 µM	19.2 µM	54.5	45	EC50 [12]: 3.12 µM; EC50 [13]: 15.6 µM; EC50 [14]: 1.73 µM; EC50 [15]: 4.16 µM; EC50 [16]: 1.39 µM; CC50 [10]: 50 µM; EC50 [17]: 13.8 µM
Cc1cccc(N2C(=O)CSC2c2c(F)cccc2F)n1 (stereo unspecified)	0.082 µM		2.9 µM	126 µM	1536		EC50 [12]: 0.75 µM; EC50 [13]: 35.9 µM; EC50 [14]: 0.39 µM; EC50 [15]: ≥ 13 µM; EC50 [16]: 0.117 µM; EC50 [17]: ≥ 13 µM
Cc1cccc(N2C(=O)CSC2c2c(F)cccc2Cl)n1 (stereo unspecified)	0.053 µM	0.04 µM	2.85 µM	31.9 µM	601	1108	CC50 [18]: 44.3 µM
O=C1CSC(c2c(Cl)cccc2Cl)N1c1cccc(Br)n1 (stereo unspecified)	0.272 µM	0.173 µM		67.4 µM	248	>1431	CC50 [18]: > 248 µM
O=C1CSC(c2c(Cl)cccc2Cl)N1c1ccccc1 (stereo unspecified)	0.401 µM			38.1 µM	95		
O=C1CSC(c2c(F)cccc2F)N1c1cccc(Br)n1 (stereo unspecified)	0.03 µM	0.03 µM		32 µM	1066	>8980	EC50 [12]: 0.94 µM; EC50 [13]: > 11 µM; EC50 [14]: 0.073 µM; EC50 [15]: 1.02 µM; EC50 [16]: 0.026 µM; IC50 [19]: 0.91 µM; EC50 [17]: 1.88 µM; CC50 [20]: > 269 µM
O=C1CSC(c2c(F)cccc2F)N1c1ccc(Br)cn1 (stereo unspecified)	4.85 µM	2.5 µM	61.4 µM	36.1 µM	7.4	18	CC50 [11]: 45.8 µM
Cc1cccnc1N1C(=O)CSC1c1c(F)cccc1F (stereo unspecified)	53.5 µM			> 319 µM	>6		
Cc1cccc(N2C(=O)CSC2c2c(Cl)cccc2Cl)n1 (stereo unspecified)	0.044 µM		2.24 µM	285 µM	6470		EC50 [12]: 0.15 µM; EC50 [13]: ≥ 60 µM; EC50 [14]: 0.117 µM; EC50 [15]: 16.2 µM; EC50 [16]: 0.073 µM
O=C1CSC(c2c(F)cccc2F)N1c1ccncc1 (stereo unspecified)				33.9 µM			EC50 [21]: Not Active; EC50 [22]: Not Active; IC50 [23]: inactive; CC50 [11]: 284 µM
O=C1CSC(c2c(Cl)cccc2Cl)N1c1ccncc1 (stereo unspecified)				10 µM			EC50 [21]: Not Active
Cc1cccnc1N1C(=O)CSC1c1c(Cl)cccc1Cl (stereo unspecified)				42.6 µM			EC50 [21]: Not Active
Cc1ccnc(N2C(=O)CSC2c2c(F)cccc2Cl)c1 (stereo unspecified)	0.099 µM	0.108 µM	4.12 µM	33.9 µM	343	525	CC50 [10]: 56.7 µM
O=C1CSC(c2c(F)cccc2F)N1c1ccccn1 (stereo unspecified)	0.855 µM			> 427 µM	>500		
